Activity calls are given as the source filed them.
Tests used:
[1] = molecular target: T1, Heat shock 70 kDa protein 1A (Homo sapiens, UniProt P0DMV8); assay: small-molecule inhibition of Hsp70 – biochemical, TR-FRET (AID 786)
[2] = molecular target: T1, Heat shock 70 kDa protein 1A; assay: small molecules displacing fluorescent ligand from Hsp70 – biochemical, fluorescence polarization, primary screen (AID 583)
[3] = molecular target: Luciferin 4-monooxygenase (Photinus pyralis, UniProt P08659); assay: Counter Screen for Luciferase-based Assay Positives. [Related pubchem assays: 620, 618, 411 ]
HT-1080 = assay: HT1080 cell viability loss – fluorescence readout (AID 620); type: functional, cell-based; conditions: Homo sapiens
[4] = molecular target: T2, E3 ubiquitin-protein ligase XIAP (Homo sapiens, UniProt P98170); assay: Counter Screen using XIAP-Bir3 for Chemical Antagonists of Bir1/2 domains of IAP-family anti-apoptotic proteins. [Related pubchem assays (depositor defined):AID1018, AID1449, AID1514, AID1638, AID1749, AID1750, AID488957, AID488963]
[5] = molecular target: T2, E3 ubiquitin-protein ligase XIAP; assay: small molecules displacing peptide from XIAP – biochemical, IAP family, fluorescence polarization (AID 1018); type: functional
[6] = A High Throughput Confirmatory Assay used to Identify Novel Compounds that Inhibit Mycobacterium Tuberculosis in the absence of Glycerol.; type: functional
[7] = M. tuberculosis growth inhibition, HTS (AID 449762); type: functional
[8] = molecular target: Protein-tyrosine kinase 2-beta (Homo sapiens, UniProt Q14289);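 further: potency of inhibitors of PYK2 kinase phosphorylation of poly-GT substrate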
[9] = viability of uninfected HEp-2 cells – cell-based, HTS, cytotoxicity control for RSV inhibitor project, dose response (AID 2410); type: functional; conditions: human respiratory syncytial virus
Vero [10] = assay: cells; type: functional, cell-based; conditions: Chlorocebus sabaeus
Vero [11] = assay: cells; type: functional; conditions: Chlorocebus sabaeus
[12] = A Cell-Based Counter Screen testing Compounds that Inhibit VEEV TC-83, in strain KU V3526.; type: functional
[13] = A Cell-Based Confirmatory Screen for Compounds that Inhibit VEEV, TC-83 (2).; type: functional
[14] = viability loss in Vero 76 cells – cell-based, set 2, cytotoxicity control, dose response (AID 602240); type: functional; conditions: Venezuelan equine encephalitis virus

T1 sequence (P0DMV8 whole entry): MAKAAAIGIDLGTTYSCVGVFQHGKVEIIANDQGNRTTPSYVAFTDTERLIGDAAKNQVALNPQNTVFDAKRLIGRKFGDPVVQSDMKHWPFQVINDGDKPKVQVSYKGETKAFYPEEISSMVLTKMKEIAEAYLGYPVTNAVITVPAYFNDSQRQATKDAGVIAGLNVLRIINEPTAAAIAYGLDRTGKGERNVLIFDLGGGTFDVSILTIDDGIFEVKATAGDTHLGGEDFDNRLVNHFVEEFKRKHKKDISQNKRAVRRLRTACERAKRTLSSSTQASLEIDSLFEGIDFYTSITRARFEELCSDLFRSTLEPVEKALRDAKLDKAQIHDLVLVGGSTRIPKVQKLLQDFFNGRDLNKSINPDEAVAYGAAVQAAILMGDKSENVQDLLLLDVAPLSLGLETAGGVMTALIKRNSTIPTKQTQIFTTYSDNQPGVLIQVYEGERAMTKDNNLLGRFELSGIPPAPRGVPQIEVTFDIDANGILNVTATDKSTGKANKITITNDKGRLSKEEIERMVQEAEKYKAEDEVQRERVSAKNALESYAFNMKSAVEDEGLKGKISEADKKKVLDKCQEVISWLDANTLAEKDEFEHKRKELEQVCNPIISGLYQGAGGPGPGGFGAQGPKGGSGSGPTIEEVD
T2 sequence (P98170 whole entry): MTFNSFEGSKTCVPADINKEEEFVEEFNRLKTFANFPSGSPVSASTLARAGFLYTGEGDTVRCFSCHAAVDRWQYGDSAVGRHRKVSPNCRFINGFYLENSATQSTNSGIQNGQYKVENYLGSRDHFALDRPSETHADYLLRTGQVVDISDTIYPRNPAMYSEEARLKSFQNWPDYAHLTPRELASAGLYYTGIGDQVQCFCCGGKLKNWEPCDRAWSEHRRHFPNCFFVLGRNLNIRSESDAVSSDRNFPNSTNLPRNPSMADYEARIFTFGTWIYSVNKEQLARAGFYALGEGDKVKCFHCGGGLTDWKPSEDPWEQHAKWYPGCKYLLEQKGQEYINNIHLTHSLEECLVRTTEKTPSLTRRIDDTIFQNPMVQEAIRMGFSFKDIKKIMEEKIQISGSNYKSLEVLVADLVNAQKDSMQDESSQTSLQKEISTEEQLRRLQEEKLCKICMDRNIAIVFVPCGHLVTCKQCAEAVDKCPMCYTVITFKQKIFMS
Sequence of Protein-tyrosine kinase 2-beta (Q14289 whole entry): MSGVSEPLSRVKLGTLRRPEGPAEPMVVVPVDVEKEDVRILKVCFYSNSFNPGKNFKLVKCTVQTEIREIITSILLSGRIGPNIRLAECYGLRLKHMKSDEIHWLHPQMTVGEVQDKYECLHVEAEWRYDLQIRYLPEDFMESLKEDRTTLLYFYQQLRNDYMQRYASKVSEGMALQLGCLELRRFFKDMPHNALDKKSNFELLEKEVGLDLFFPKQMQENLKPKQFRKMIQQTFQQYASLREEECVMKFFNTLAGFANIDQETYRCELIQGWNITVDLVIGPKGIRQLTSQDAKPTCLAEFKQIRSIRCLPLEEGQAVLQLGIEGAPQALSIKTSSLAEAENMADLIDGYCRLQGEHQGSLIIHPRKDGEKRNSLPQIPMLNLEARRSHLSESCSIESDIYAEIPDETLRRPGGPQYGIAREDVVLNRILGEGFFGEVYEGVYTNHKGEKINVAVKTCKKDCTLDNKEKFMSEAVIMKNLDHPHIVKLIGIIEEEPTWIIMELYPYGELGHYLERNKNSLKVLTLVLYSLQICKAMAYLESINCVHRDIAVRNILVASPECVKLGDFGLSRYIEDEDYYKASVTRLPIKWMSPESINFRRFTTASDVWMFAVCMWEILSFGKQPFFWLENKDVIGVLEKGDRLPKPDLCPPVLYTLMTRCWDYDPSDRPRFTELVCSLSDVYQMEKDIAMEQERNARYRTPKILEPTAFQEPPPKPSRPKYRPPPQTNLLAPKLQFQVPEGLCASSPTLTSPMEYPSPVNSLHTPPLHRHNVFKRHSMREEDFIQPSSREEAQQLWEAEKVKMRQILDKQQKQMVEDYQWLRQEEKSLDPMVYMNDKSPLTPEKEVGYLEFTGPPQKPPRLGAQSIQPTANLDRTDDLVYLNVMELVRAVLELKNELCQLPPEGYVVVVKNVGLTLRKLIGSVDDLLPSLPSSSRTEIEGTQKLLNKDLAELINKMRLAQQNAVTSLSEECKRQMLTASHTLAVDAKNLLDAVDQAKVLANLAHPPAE
Sequence of Luciferin 4-monooxygenase (P08659 whole entry): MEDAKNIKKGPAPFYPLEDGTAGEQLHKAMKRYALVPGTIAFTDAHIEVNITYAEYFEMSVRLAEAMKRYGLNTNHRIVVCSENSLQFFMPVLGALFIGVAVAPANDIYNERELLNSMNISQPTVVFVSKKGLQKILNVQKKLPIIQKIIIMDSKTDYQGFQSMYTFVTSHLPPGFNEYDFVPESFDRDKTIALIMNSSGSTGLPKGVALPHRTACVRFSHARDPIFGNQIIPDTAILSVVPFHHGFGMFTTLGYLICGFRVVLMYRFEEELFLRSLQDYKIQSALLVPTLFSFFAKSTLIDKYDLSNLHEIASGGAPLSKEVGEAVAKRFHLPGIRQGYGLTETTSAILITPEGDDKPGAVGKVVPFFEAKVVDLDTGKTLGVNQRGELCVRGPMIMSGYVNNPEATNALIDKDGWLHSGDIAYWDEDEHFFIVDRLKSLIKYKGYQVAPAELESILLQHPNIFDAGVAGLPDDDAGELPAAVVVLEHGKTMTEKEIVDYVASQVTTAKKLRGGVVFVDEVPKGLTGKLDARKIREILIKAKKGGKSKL

With `Cc1c(NC(=O)Nc2ccc(Cl)cc2)c(=O)n(-c2ccccc2)n1C` the IC50 [1] was > 100 µM (not active) and the IC50 [2] was > 100 µM (not active).

For `Nc1ccc2oc(-c3ccc4[nH]cnc4c3)nc2c1`, the EC50 [3] was 11.2 µM (active) and the EC50 (HT-1080) was > 50 µM (not active).

For `O=c1c2ccccc2nnn1CSc1nnc(-c2cccs2)n1Cc1ccccc1`, the IC50 [4] was > 100 µM (inactive) and the IC50 [5] was > 100 µM (not active).

With `O=c1c2ccccc2nc(/C=C/c2ccccc2)n1-c1ccc(O)cc1` the IC50 [6] was > 50 µM (active) and the IC50 [7] was > 100 µM (active).

For `CCN(CC)S(=O)(=O)c1cc([N+](=O)[O-])ccc1NNC(=O)Nc1ccccc1`, the IC50 [8] was > 69.5 µM (not active).

With `O=C(Cc1cccs1)Nc1nc2c(s1)CCCC2` the CC50 [9] was 17.2 µM (active), the IC50 (Vero [10]) was 6.38 µM (active) and the CC50 (Vero [11]) was > 25 µM (active). The IC50 [12] was 4.71 µM (active), the IC50 [13] was 7.09 µM (active) and the CC50 [14] was > 50 µM (active). The IC50 (cells) was 10 µM (active).
